According to patent US11427615B2, “Peptide compound and application thereof, and composition containing peptide compound” (XDCEXPLORER (SHANGHAI) CO., LTD., priority 2017, dated 2022):
Non-standard residues stand in square brackets, D forms with d. Residues, ends and D or L forms follow the SMILES beside them. *: point of attachment. X5 = CCCCCCCCCCCC(=O)NCCOCCOCCOCCOCCOCCSSCCCC(=O)*; dPhe(2,4-Cl2) = N[C@H](Cc1ccc(Cl)cc1Cl)C(=O)O; C18 diacid = O=C(O)CCCCCCCCCCCCCCCCC(=O)*; Oic = O=C(O)[C@@H]1C[C@@H]2CCCC[C@@H]2N1; PEG8 = NCCOCCOCCOCCOCCOCCOCCOCCOCCC(=O)O; Pro(4,4-F2) = O=C(O)[C@@H]1CC(F)(F)CN1; dAla(2-furyl) = N[C@H](Cc1ccco1)C(=O)O; Arg(Me) = CNC(=N)NCCC[C@H](N)C(=O)O; Palmitoyl = CCCCCCCCCCCCCCCC(=O)*; Hyp = O=C(O)[C@@H]1C[C@@H](O)CN1; AllylGly = C=CC[C@H](N)C(=O)O; PEG4 = NCCOCCOCCOCCOCCC(=O)O; Lauroyl = CCCCCCCCCCCC(=O)*; Pip = O=C(O)[C@@H]1CCCCN1; Ac6c = NC1(C(=O)O)CCCCC1; AEEA = NCCOCCOCC(=O)O; azaGly = NNC(=O)O

How the values were obtained:
[1] = molecular target: T1, human kiss1 receptor (GPR54) (Homo sapiens, UniProt Q969F8); assay: Kiss1 receptor (GPR54) binding activity of agonists, FRET detection in NFAT-bla CHO-K1 cells; format: cell-based; details: GPR54; measured according to the method of effect Embodiment 1; preliminary data; read-out: Preliminary measurement data (GPR54) EC50
T1 construct: host or cells: NFAT-bla CHO-K1 cells (Chinese hamster ovary), purchased recombinant cell line
T1 sequence (Q969F8 whole entry): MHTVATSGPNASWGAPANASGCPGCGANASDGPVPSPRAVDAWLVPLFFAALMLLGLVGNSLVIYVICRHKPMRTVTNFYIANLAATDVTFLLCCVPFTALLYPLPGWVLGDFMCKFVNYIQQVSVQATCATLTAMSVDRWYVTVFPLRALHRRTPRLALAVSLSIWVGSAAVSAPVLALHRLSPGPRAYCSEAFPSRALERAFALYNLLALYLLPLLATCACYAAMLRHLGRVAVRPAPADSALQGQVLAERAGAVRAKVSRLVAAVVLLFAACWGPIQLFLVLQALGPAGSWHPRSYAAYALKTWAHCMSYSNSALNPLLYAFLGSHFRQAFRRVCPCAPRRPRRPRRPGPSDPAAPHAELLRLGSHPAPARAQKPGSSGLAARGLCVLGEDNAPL

[2] = Plasma stability, LC-MS/MS; format: in vitro ADME; details: rat plasma, 37° C., final concentration 500 ng/ml, time points 0 minutes, 1, 2 and 4 hours; calculated half-life; read-out: Rat plasma (T½ (h)) (converted)
Protocol: Effect Embodiment 2 Experimental Data on Plasma Stability of Some Compounds
1. Preparation of 50 mM Phosphate Buffer:
The 5.750 g Na2HPO4, 1.141 g NaH2PO4. and 4.095 g NaCl (Shanghai Titan) weighed was dissolved in 1000 mL ultrapure water and the pH was adjusted to 7.4 to give 50 mM phosphate buffer containing 70 mM NaCl. The prepared phosphoric acid buffer solution was stored in the refrigerator at 4° C. and was valid for one week.
2. Preparation of compound stock solution:
1). 5 mg/mL of test compound: 5 mg of compound was weighted and dissolved in 1 mL of DMSO.
2). 20 mM control: 2.728 mg of Fuka was dissolved in 0.5 mL of DMSO. 3.878 mg of benzalkonium bromide was dissolved in 0.5 mL of DMSO (Amresco).
3. Preparation of experimental plasma:
The frozen plasma (human: Shanghai wise chemistry; Rats and mice: Shanghai Sciple-Bikai; Dogs and monkeys: Suzhou Xishan Zhongke) were taken out of the −80° C. refrigerator, immediately placed in a 37° C. water bath, slightly shaken to melt it, then the thawed plasma was poured into a centrifuge tube, centrifuged at 3000 rpm for 8 min, and the supernatant was taken for experiments. The pH value of plasma was detected by a pH Meter & Sensor (METTLER TOLEDO). Only plasma with a pH value between 7.4 and 8 was used in the experiment. The plasma was placed on an ice bath for later use.
4. Preparation of administration solution:
1). 125 µg/ml test compound solution: 5 μL of 5 mg/mL test compound (see step 2) was added into 195 μL DMSO; 500 μM control solution: 20 mM control stock solution (see step 2) was added to 195 μL DMSO.
2). 0.5% BSA phosphate buffer solution: 0.05 g BSA was added to 10 mL phosphate buffer solution (see step 1);
3). 5 µg/ml of test compound administration solution: 40 μL of 125 μg/mL of test compound solution was added into 960 μL 0.5% BSA phosphate buffer solution, stirred and mixed evenly, and the administration solution was preheated in a 37° C. water bath for 5 minutes.
20 μM reference substance administration solution: 40 μL of 500 μM reference substance administration solution was added into 960 μL 0.5% BSA phosphate buffer solution, stirred and mixed evenly, and the administration solution was preheated in a 37° C. water bath for 5 minutes.
5. 10 μL of 5 μg/mL of the test compound and 20 μM of the control substance administration solution were respectively added to the wells set at different time points (0 minutes, 1 hour, 2 hours and 4 hours) on the 96-well plate, and the number of duplicate samples was 3.
6. 500 μL of ACN (IS) containing 5% FA was added to the well set at 0 minute hour, then 90 μL of plasma was added, after mixing, sealing film was pasted and placed at 4° C. (number of duplicate samples was 3).
7. 90 μL of plasma was added to the wells with set time points of 1 hour, 2 hours and 4 hours respectively, the number of duplicate samples was 3, and timing was started (the final concentration of the test compound was 500 ng/ml; The control was 2 μM).
9. All samples (0 minutes, 1 hour, 2 hours and 4 hours) at different time points on a 96-well plate were shaken for 10 minutes at 600 rpm/min on an oscillator (MTS 2/4, IKA), and then the samples were centrifuged for 15 minutes at 5594×g in a centrifuge (Multifuge×3R, thermo Fisher).
10. 150 μL of supernatant was taken from the centrifuged sample and sent to LC-MS/MS for analysis (conventional polypeptide LC-MS/MS analysis method).

Structure (SMILES)	EC50 [1] [nM]	half-life at 500 ng/ml [2] [h]
CNC(=N)NCCC[C@H](NC(=O)[C@H](CC(C)C)NC(=O)NNC(=O)[C@H](Cc1ccccc1)NC(=O)[C@@H](NC(=O)[C@H](CC(N)=O)NC(=O)[C@@H]1CCCCN1C(=O)[C@@H](Cc1ccc(Cl)cc1Cl)NC(C)=O)[C@@H](C)O)C(=O)N[C@@H](Cc1c[nH]c2ccccc12)C(N)=O [YA-182, Ac-[D-Phe(2,4-DiCl)]—(S-Pip)-Asn-Thr-Phe-azaGly-Leu-Arg(Me)-Trp-NH2] (Ac-[dPhe(2,4-Cl2)][Pip]NTF[azaGly]L[Arg(Me)]W-NH2)	0.021	5.32
CNC(=N)NCCC[C@H](NC(=O)[C@H](CC(C)C)NC(=O)C1(NC(=O)[C@H](Cc2ccccc2)NC(=O)[C@@H](NC(=O)[C@H](CC(N)=O)NC(=O)[C@@H]2CC(F)(F)CN2C(=O)[C@@H](Cc2ccco2)NC(C)=O)[C@@H](C)O)CCCCC1)C(=O)N[C@@H](Cc1c[nH]c2ccccc12)C(N)=O [YA-201, Ac-(D-2Fua)-Pro(diF)-Asn-Thr-Phe-A6c-Leu-Arg(Me)-Trp-NH2] (Ac-[dAla(2-furyl)][Pro(4,4-F2)]NTF[Ac6c]L[Arg(Me)]W-NH2)	0.39	2.65
CCCCCCCCCCCCCCCC(=O)NCCOCCOCCOCCOCCOCCOCCOCCOCCC(=O)NCC(=O)NCC(=O)N[C@H](Cc1ccco1)C(=O)N1CC(F)(F)C[C@H]1C(=O)N[C@@H](CC(N)=O)C(=O)N[C@H](C(=O)N[C@@H](Cc1ccccc1)C(=O)NC1(C(=O)N[C@@H](CC(C)C)C(=O)N[C@@H](CCCNC(=N)NC)C(=O)N[C@@H](Cc2c[nH]c3ccccc23)C(N)=O)CCCCC1)[C@@H](C)O [YA-220, Palm-PEG8-Gly-Gly-D-3Fua-Pro(diF)-Asn-Thr-Phe-A6c-Leu-Arg(Me)-Trp-NH2] ({Palmitoyl-PEG8}-GG[dAla(2-furyl)][Pro(4,4-F2)]NTF[Ac6c]L[Arg(Me)]W-NH2)	0.023	59
CNC(=N)NCCC[C@H](NC(=O)[C@H](CC(C)C)NC(=O)NNC(=O)[C@H](Cc1ccccc1)NC(=O)[C@@H](NC(=O)[C@H](CC(N)=O)NC(=O)[C@@H]1C[C@@H]2CCCC[C@@H]2N1C(=O)[C@@H](Cc1ccc(O)cc1)NC(C)=O)[C@@H](C)O)C(=O)N[C@@H](Cc1c[nH]c2ccccc12)C(N)=O [YA-230, Ac-D-Tyr-Oic-Asn-Thr-Phe-azaGly-Leu-Arg(Me)-Trp-NH2] (Ac-[dY][Oic]NTF[azaGly]L[Arg(Me)]W-NH2)	0.04	3.64
CCCCCCCCCCCCCCCC(=O)NCCOCCOCCOCCOCCOCCOCCOCCOCCC(=O)NCC(=O)NCC(=O)N[C@H](Cc1ccc(O)cc1)C(=O)N1C[C@H](O)C[C@H]1C(=O)N[C@@H](CC(N)=O)C(=O)N[C@H](C(=O)N[C@@H](Cc1ccccc1)C(=O)NC1(C(=O)N[C@@H](CC(C)C)C(=O)N[C@@H](CCCNC(=N)NC)C(=O)N[C@@H](Cc2c[nH]c3ccccc23)C(N)=O)CCCCC1)[C@@H](C)O [YA-264, Palm-PEG 8-Gly-Gly-D-Tyr-Hyp-Asn-Thr-Phe-A6C-Leu-Arg(Me)-Trp-NH2] ({Palmitoyl-PEG8}-GG[dY][Hyp]NTF[Ac6c]L[Arg(Me)]W-NH2)	0.029	13
CNC(=N)NCCC[C@H](NC(=O)[C@H](CC(C)C)NC(=O)NNC(=O)[C@H](Cc1ccccc1)NC(=O)[C@@H](NC(=O)[C@H](CC(N)=O)NC(=O)C1(NC(=O)[C@@H](Cc2ccco2)NC(C)=O)CCCCC1)[C@@H](C)O)C(=O)N[C@@H](Cc1c[nH]c2ccccc12)C(N)=O [YA-271, Ac-(D-2Fua)-A6c-Asn-Thr-Phe-azaGly-Leu-Arg(Me)-Trp-NH2] (Ac-[dAla(2-furyl)][Ac6c]NTF[azaGly]L[Arg(Me)]W-NH2)	0.025	15.6
CNC(=N)NCCC[C@H](NC(=O)[C@H](CC(C)C)NC(=O)NNC(=O)[C@H](Cc1ccccc1)NC(=O)[C@@H](NC(=O)[C@H](CC(N)=O)NC(=O)[C@@H]1C[C@@H](O)CN1C(=O)[C@@H](Cc1ccc(O)cc1)NC(=O)COCCOCCNC(=O)COCCOCCNC(=O)CCCCCCCCCCCCCCCCC(=O)O)[C@@H](C)O)C(=O)N[C@@H](Cc1c[nH]c2ccccc12)C(N)=O [YA-273, C 18 diacid-OEG-OEG-D-Tyr-Hyp-Asn-Thr-Phe-azaGly-Leu-Arg(Me)-Trp-NH2] ({C18 diacid-AEEA-AEEA}-[dY][Hyp]NTF[azaGly]L[Arg(Me)]W-NH2)	0.05	166
CCCCCCCCCCCCCCCC(=O)NCCOCCOCCOCCOCCOCCOCCOCCOCCC(=O)NCC(=O)NCC(=O)N[C@H](Cc1ccc(O)cc1)C(=O)N1C[C@H](O)C[C@H]1C(=O)N[C@@H](CC(N)=O)C(=O)N[C@H](C(=O)N[C@@H](Cc1ccccc1)C(=O)N[C@H](Cc1ccco1)C(=O)N[C@@H](CC(C)C)C(=O)N[C@@H](CCCNC(=N)NC)C(=O)N[C@@H](Cc1c[nH]c2ccccc12)C(N)=O)[C@@H](C)O [YA-288, Palm-PEG 8-Gly-Gly-D-Tyr-Hyp-Asn-Thr-Phe-(D-2Fua)-Leu-Arg(Me)-Trp-NH2] ({Palmitoyl-PEG8}-GG[dY][Hyp]NTF[dAla(2-furyl)]L[Arg(Me)]W-NH2)	0.018	27.5
CCCCCCCCCCCC(=O)NCCOCCOCCOCCOCCC(=O)NCCOCCOCCOCCOCCC(=O)N[C@H](Cc1ccc(O)cc1)C(=O)N1C[C@H](O)C[C@H]1C(=O)N[C@@H](CC(N)=O)C(=O)N[C@H](C(=O)N[C@@H](Cc1ccccc1)C(=O)NNC(=O)N[C@@H](CC(C)C)C(=O)N[C@@H](CCCNC(=N)NC)C(=O)N[C@@H](Cc1c[nH]c2ccccc12)C(N)=O)[C@@H](C)O [YA-296, Dodecanoyl-PEG4-PEG4-D-Tyr-Hyp-Asn-Thr-Phe-azaGly-Leu-Arg(Me)-Trp-NH2] ({Lauroyl-PEG4-PEG4}-[dY][Hyp]NTF[azaGly]L[Arg(Me)]W-NH2)	0.011	2.73
CCCCCCCCCCCCCCCC(=O)NCCOCCOCCOCCOCCOCCOCCOCCOCCC(=O)N[C@H](Cc1ccc(O)cc1)C(=O)N1C[C@H](O)C[C@H]1C(=O)N[C@@H](CC(N)=O)C(=O)N[C@H](C(=O)N[C@@H](Cc1ccccc1)C(=O)NNC(=O)N[C@@H](CC(C)C)C(=O)N[C@@H](CCCNC(=N)NC)C(=O)N[C@@H](Cc1c[nH]c2ccccc12)C(N)=O)[C@@H](C)O [YA-298, Palm-PEG8-D-Tyr-Hyp-Asn-Thr-Phe-azaGly-Leu-Arg(Me)-Trp-NH2] ({Palmitoyl-PEG8}-[dY][Hyp]NTF[azaGly]L[Arg(Me)]W-NH2)	0.016	12.7
CCCCCCCCCCCC(=O)NCCOCCOCCOCCOCCOCCSSCCCC(=O)N[C@H](Cc1ccc(O)cc1)C(=O)N1C[C@H](O)C[C@H]1C(=O)N[C@@H](CC(N)=O)C(=O)N[C@H](C(=O)N[C@@H](Cc1ccccc1)C(=O)NNC(=O)N[C@@H](CC(C)C)C(=O)N[C@@H](CCCNC(=N)NC)C(=O)N[C@@H](Cc1c[nH]c2ccccc12)C(N)=O)[C@@H](C)O [YA-324, Dodecanoyl-(NH-PEG5-CH2CH2S)-(4-thiol-butanoyl)-(D-Tyr)-Hyp-Asn-Thr-Phe-azaG-Leu-Arg(Me)-Trp-NH2] (X5-[dY][Hyp]NTF[azaGly]L[Arg(Me)]W-NH2)	0.007	0.29
C=CC[C@H](NC(=O)[C@H](Cc1ccccc1)NC(=O)[C@@H](NC(=O)[C@H](CC(N)=O)NC(=O)[C@@H]1C[C@@H](O)CN1C(=O)[C@@H](Cc1ccc(O)cc1)NC(=O)CCOCCOCCOCCOCCOCCOCCOCCOCCNC(=O)CCCCCCCCCCCCCCC)[C@@H](C)O)C(=O)N[C@@H](CC(C)C)C(=O)N[C@@H](CCCNC(=N)NC)C(=O)N[C@@H](Cc1c[nH]c2ccccc12)C(N)=O [YA-360, Palm-PEG8-Gly-Gly-(D-Tyr)-Hyp-Asn-Thr-Phe-A1g-Leu-Arg(Me)-Trp-NH2] ({Palmitoyl-PEG8}-[dY][Hyp]NTF[AllylGly]L[Arg(Me)]W-NH2)	0.006	79.9
